Test results from patent publication US20220144812A1, “QUINOLINE DERIVATIVES AND THEIR USE FOR THE TREATMENT OF CANCER” (Epizyme, Inc., priority 2019, published 2022).
Like-named read-outs stand apart in the source and are kept apart here.

Legend:
[1] = system: H3K18Ac in HB-CLS-2 cells; assay: H3K18AC in-cell western (ICW) assay; type: cell-based; conditions: read-out: CREBBP ICW IC50
In short: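 HB-CLS-2 cells seeded 16–24 hours before 2 hr compound treatment at 37° C, 5% CO2, then methanol-fixed. H3K18Ac detected with rabbit monoclonal primary (overnight, 4° C) and 800CW anti-rabbit secondary; DRAQ5 stained DNA. Plates imaged at 700 and 800 nm for integrated intensity; IC50 in μM.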

647V cells = assay: High throughput proliferation (HTP) assay; type: cell-based; conditions: read-out: CREBBP HTP IC50
Text: The following example describes methods and materials relating to a high throughput proliferation (HTP) assay. IC50 values (micromolar) are summarized in Table 1, Table 2, and Table 3 under the column labeled: “CREBBP HTP IC50 (micromolar).”
MATERIALS: 647V cell line, Dulbecco's MEM, penicillin-streptomycin, heat inactivated fetal bovine serum, D-PBS, and CellTiter-Glo were commercially available.
647V adherent cells were maintained in complete growth medium (Dulbecco's MEM supplemented with 15% v/v heat inactivated fetal bovine serum) and cultured at 37° C. under 5% CO2.
METHOD: Measurement of the effect of compound in High Throughput Proliferation (HTP) assays was performed as follows: Exponentially growing 647V cells were plated, in triplicate, in 384-well plates at the appropriate cell density in a final volume of 50 μl. Cells were incubated in the presence of increasing concentrations of compound. Viable cell number was determined at day 7 by addition of 35 μl CellTiter-Glo to each well of the plate, incubated in the dark for 30 minutes, and read on a PerkinElmer EnVision instrument to enumerate the number of cells.

CREBBP (1084-1701) = target: T1, CREBBP (1084-1701) (Homo sapiens, UniProt Q92793); assay: Biochemical assay for CREBBP (1084-1701), SAMDI; conditions: SAMDI, read-out: CREBBP Biochemistry IC50
T1 construct: measured in the following biochemical assay using CREBBP (1084-1701); purchased
Text: The following example describes materials and methods relating to a biochemical assay for CREBBP (1084-1701). IC50 values (micromolar (μM)) are summarized in Table 1, Table 2, and Table 3 under the column labeled: “CREBBP Biochemistry IC50 (micromolar).”
MATERIALS: Reagents 1M Tris pH 8.0, Tween 20 10%, DTT, bovine serum gelatin (BSG) 2%, Peptide #233 (biotin-H3 11-25, K14R, K23R), Acetyl-CoA, CREBBP (1084-1701), formic acid (100%), and sodium bicarbonate were commercially available.
METHODS: The effect of compounds was measured in the following biochemical assay using CREBBP (1084-1701). Enzyme mix 30 μL per well was added using a Multi-drop to wells of prepared Compound Stock plate. The enzyme was incubated in the Compound Stock plate for 30 minutes at room temperature. Substrate mix, 20 μL per well, was added to Compound Stock plate using a Multi-drop. The plate was covered and incubate 30 minutes at room temperature. The reaction was stopped with addition of 5 μL per well of 5% formic acid using a Multi-drop. The plate was Incubated for 30 minutes at room temperature. The reaction mixture was neutralized with addition of 5 μL per well of 10% sodium bicarbonate using a Multi-drop. The plate was Incubated for 35 minutes at room temperature. The reaction mixture was Transferred 2.5 μL per well to a SAMDI biochip. The plate was Incubated for 60 minutes at room temperature. The samples were washed, dried, and matrix applied to SAMDI biochip. The SAMDI biochip was then read on the mass spectrometer.

[2] = Homo sapiens, 647-V, high throughput proliferation
[3] = H3K18Ac in-cell western, HB-CLS-2 cells
[4] = Homo sapiens, 647-V, high throughput proliferation, 647V cells
[5] = 2 h, H3K18Ac in HB-CLS-2 cells, 2 hrs compound incubation
[6] = Homo sapiens, 647-V, 168 h, 647V cells, day 7, CellTiter-Glo

T1 sequence (Q92793 1084-1701): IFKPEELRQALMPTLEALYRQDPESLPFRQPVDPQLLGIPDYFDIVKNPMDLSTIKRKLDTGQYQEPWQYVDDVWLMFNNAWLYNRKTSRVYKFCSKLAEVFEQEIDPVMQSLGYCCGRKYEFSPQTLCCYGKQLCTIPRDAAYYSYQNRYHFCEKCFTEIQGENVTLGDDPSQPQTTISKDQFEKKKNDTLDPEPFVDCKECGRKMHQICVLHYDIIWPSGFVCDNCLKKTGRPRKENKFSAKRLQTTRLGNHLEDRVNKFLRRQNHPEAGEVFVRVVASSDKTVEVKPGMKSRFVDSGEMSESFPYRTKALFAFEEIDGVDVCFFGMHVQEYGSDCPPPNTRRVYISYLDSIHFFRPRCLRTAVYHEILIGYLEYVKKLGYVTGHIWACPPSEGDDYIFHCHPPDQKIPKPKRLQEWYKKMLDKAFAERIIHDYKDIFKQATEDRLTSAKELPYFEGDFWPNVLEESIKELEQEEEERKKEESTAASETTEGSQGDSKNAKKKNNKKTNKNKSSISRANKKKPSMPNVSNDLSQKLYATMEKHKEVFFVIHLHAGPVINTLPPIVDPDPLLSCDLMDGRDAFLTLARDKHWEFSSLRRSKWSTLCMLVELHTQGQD

Compound	IC50 ([1]; H3K18Ac in-cell western)	IC50 (647V cells; [2])	IC50 (CREBBP (1084-1701))	IC50 [1, 3]	other results
CCn1ncc(CN(C)C(=O)c2nc(-c3ccc(OCCCNC)c(C)c3)nc3ccc(Cl)cc23)c1C [Compound 29]	0.23 µM	0.1 µM	0.028 µM	–	–
CCn1ncc(CN(C)C(=O)c2nc(-c3ccc(OCCCNC)c(C)c3)nc3ccc(Cl)cc23)c1C [Compound 36]	0.3 µM	–	0.052 µM	–	IC50 (647V cells; high throughput proliferation): 0.18 µM
CCn1ncc(CN(C)C(=O)c2nc(-c3ccc4nc[nH]c4c3)nc3ccc(Cl)cc23)c1C [Compound 47]	0.43 µM	0.42 µM	–	–	–
CCn1ncc(CN(C)C(=O)c2nc(-c3ccc4c[nH]nc4c3Cl)nc3ccc(COC)cc23)c1C [Compound 52]	0.52 µM	0.69 µM	0.25 µM	–	–
CCn1ncc(CN(C)C(=O)c2nc(-c3ccc4[nH]cnc4c3)nc3ccc(Cl)cc23)c1C [Compound 57]	0.66 µM	0.5 µM	–	–	–
CCn1ncc(CN(C)C(=O)c2nc(-c3ccc4nc[nH]c4c3)nc3ccc(Cl)cc23)c1C [Compound 59]	0.67 µM	–	–	–	IC50 (647V cells; high throughput proliferation): 0.44 µM
CCn1ncc(CN(C)C(=O)c2nc(-c3ccc4c[nH]nc4c3Cl)nc3ccc(COC)cc23)c1C [Compound 68]	0.8 µM	–	0.25 µM	–	IC50 (647V cells; high throughput proliferation): 0.69 µM
CCn1ncc(CN(C)C(=O)c2nc(-c3cccc(Cl)c3)nc3ccc(Cl)cc23)c1C [Compound 71]	0.92 µM	1.2 µM	0.0094 µM	–	–
CCn1ncc(CN(C)C(=O)c2cc(-c3ccccc3C#N)nc3ccc(Cl)cc23)c1C [Compound 81]	1.2 µM	2.2 µM	1.8 µM	–	–
CCn1ncc(CN(C)C(=O)c2cc(-c3ccccc3F)nc3ccc(Cl)cc23)c1C [Compound 86]	1.3 µM	1.4 µM	0.71 µM	–	–
CCn1ncc(CN(C)C(=O)c2cc(-c3ccccn3)nc3ccc(Cl)cc23)c1C [Compound 92]	1.7 µM	0.41 µM	0.31 µM	–	–
CCn1ncc(CN(C)C(=O)c2cc(-c3cccc(Cl)c3)nc3ccc(Cl)cc23)c1C [Compound 106]	2.4 µM	2.6 µM	0.31 µM	–	–
CCn1ncc(CN(C)C(=O)c2nc(-c3cccc(Cl)c3)nc3ccccc23)c1C [Compound 130]	4.7 µM	6.5 µM	2 µM	–	–
Cc1c(CN(C)C(=O)c2cc(-c3cccc(Cl)c3)nc3ccc(Cl)cc23)cnn1C(C)C [Compound 132]	4.9 µM	2.2 µM	0.31 µM	–	–
CCn1ncc(CN(C)C(=O)c2nc(-c3cncn3C)nc3ccc(Cl)cc23)c1C [Compound 158]	9.8 µM	–	14 µM	–	IC50 (647V cells; high throughput proliferation): 6.6 µM
CCN(Cc1cnn(CC)c1C)C(=O)c1cc(-c2cccc(Cl)c2)nc2ccc(Cl)cc12 [Compound 175]	15 µM	9.4 µM	5.3 µM	–	–
CCn1ncc(CN(C)C(=O)c2cc(-n3cc4c(n3)CN(C(=O)OC(C)(C)C)CC4)nc3ccc(Cl)cc23)c1C [Compound 178]	17 µM	4.8 µM	–	–	–
CCn1ncc(CN(C)C(=O)c2nc(-c3cc(Cl)cc(OCCCNC(=O)OC(C)(C)C)c3)nc3ccc(Cl)cc23)c1C [Compound 180]	19 µM	20 µM	–	–	–
CCn1ncc(CN(C)C(=O)c2nc(-n3ncc4c3CN(C(=O)OC(C)(C)C)CC4)nc3ccc(Cl)cc23)c1C [Compound 192]	20 µM	9.4 µM	–	–	–

Compound	IC50 ([1]; H3K18Ac in-cell western)	IC50 (647V cells; [2])	IC50 (CREBBP (1084-1701))	IC50 [1, 3]	other results
CCn1ncc(CN(C)C(=O)c2nc(-n3cc4c(n3)CN(C(=O)OC(C)(C)C)CC4)nc3ccc(Cl)cc23)c1C [Compound 193]	20 µM	8.2 µM	–	–	–
CCn1ncc(CN(C)C(=O)c2nc(N3CCCN(C)CC3)nc3ccc(Cl)cc23)c1C [Compound 196]	20 µM	17 µM	–	–	–
CCc1cc(-c2nc(C(=O)N(C)Cc3cnn(CC)c3C)c3cc(Cl)ccc3n2)ccc1OCCCN(C)C(=O)OC(C)(C)C [Compound 209]	–	–	–	20 µM	IC50 (647V cells; [4]): 8.8 µM
CCn1ncc(CN(C)C(=O)c2cc(-c3ccc(OCCCNC)cn3)nc3ccc(Cl)cc23)c1C [Compound 219]	–	–	–	20 µM	IC50 (647V cells; [4]): 20 µM
CCc1[nH]cc(CN(C)C(=O)c2nc(-c3ccccc3Cl)nc3ccc(Cl)cc23)c1C [Compound 221]	–	–	–	20 µM	IC50 (647V cells; [4]): 10 µM
Cc1n[nH]c(C)c1CN(C)C(=O)c1nc(-c2ccccc2Cl)nc2ccc(Cl)cc12 [Compound 229]	–	–	–	20 µM	IC50 (647V cells; [4]): 20 µM
CCn1ncc(CN(C)C(=O)c2nc(-c3cn(CCCN(C)C(=O)OC(C)(C)C)cn3)nc3ccc(Cl)cc23)c1C [Compound 230]	–	–	–	20 µM	IC50 (647V cells; [4]): 20 µM
CCn1ncc(CN(C)C(=O)c2nc(-c3cc(Cl)cc(OCCCN(C)C(=O)OC(C)(C)C)c3)nc3ccc(Cl)cc23)c1C [Compound 233]	–	–	–	20 µM	IC50 (647V cells; [4]): 20 µM
CCn1ncc(CN(C)C(=O)c2nc(-c3ccc(OCCNC)cn3)nc3ccc(Cl)cc23)c1C [Compound 238]	–	–	–	20 µM	IC50 (647V cells; [4]): 20 µM
CCn1ncc(CN(C)C(=O)c2cc(-c3cn(Cc4ccc(OC)cc4)c(CN(C)C)n3)nc3ccc(Cl)cc23)c1C [Compound 239]	–	–	–	20 µM	IC50 (647V cells; [4]): 20 µM
CCn1ncc(CN(C)C(=O)c2nc(-c3cn(CCN(C)C(=O)OC(C)(C)C)cn3)nc3ccc(Cl)cc23)c1C [Compound 240]	–	–	–	20 µM	IC50 (647V cells; [4]): 20 µM
CCn1ncc(CN(C)C(=O)c2nc(N3CCN(C)CC3)nc3ccc(Cl)cc23)c1C [Compound 245]	–	–	–	20 µM	IC50 (647V cells; [4]): 20 µM
CCn1ncc(CN(C)C(=O)c2nc(-c3ccccc3Cl)nc3ccccc23)c1C [Compound 284]	–	–	13 µM	15 µM	IC50 (647V cells; [4]): 8.5 µM
CCn1ncc(CN(C)C(=O)c2nc(-c3cncn3C)nc3ccc(Cl)cc23)c1C [Compound 363]	–	–	9.2 µM	7.4 µM	–
CCn1ncc(CN(C)C(=O)c2cc(-c3cccc(Cl)c3)nc3ccc(N(C)C)cc23)c1C [Compound 369]	–	–	5.5 µM	15 µM	–
CCn1ncc(CN(C)C(=O)c2nc(-c3ccc(OC)cc3)nc3ccc(Cl)cc23)c1C [Compound 373]	–	–	2.3 µM	4.5 µM	–
CCc1ccc(-c2nc(C(=O)N(C)Cc3cnn(CC)c3C)c3cc(Cl)ccc3n2)cc1 [Compound 374]	–	–	9.2 µM	18 µM	–
CCn1ncc(CN(C)C(=O)c2cc(-c3ccc(NCC(O)CN(C)C)c(C)n3)nc3ccc(COC)cc23)c1C (stereo not drawn) [Compound 643]	–	–	–	–	IC50 [1, 5]: 0.327 µM; IC50 (647V cells; [6]): 0.233 µM
CCc1ncc(CN(C)C(=O)c2cc(-c3ccc(NCC(O)CN(C)C)c(C)n3)nc3ccc(COC)cc23)n1C (stereo not drawn) [Compound 644]	–	–	–	–	IC50 [1, 5]: 0.701 µM; IC50 (647V cells; [6]): 0.269 µM
